Experimental data: patent publication US8124610B2, “Sodium channel inhibitors” (Icagen Inc., priority 2007, dated 2012)
pIC50: −log10 of the molar value. Where two headings read alike, the source gives them in different places.

Columns and labels:
[1] = biological target: T1, hSCN9A (Homo sapiens, UniProt Q15858); assay: Whole-cell patch-clamp electrophysiology (conventional or PatchXpress), HEK cells expressing hSCN9A, estimated IC-50; assay type: cell-based; conditions: read-out: SCN9A EIC-50
T1 construct: expressed in transfected cells
Procedure, shortened: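 Stably transfected HEK cells recorded by whole-cell voltage clamp (manual or PatchXpress) at 22–24 °C in pH 7.4 HEPES-buffered extracellular solution. Cells held at the empirically determined inactivation V1/2 after an 8 s prepulse, then stepped to 0 mV for 20 ms; % inhibition from current amplitude before vs after compound.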

[2] = biological target: T2, hSCN3A (Homo sapiens, UniProt Q9NY46); assay: Whole-cell patch-clamp electrophysiology (conventional or PatchXpress), HEK cells expressing hSCN3A, estimated IC-50; assay type: cell-based; conditions: read-out: SCN3A EIC-50
T2 construct: expressed in transfected cells
Experimental: Human Embryonic Kidney (HEK) cells were transfected with hSCN3A or hSCN9A constructs using lipofectamine reagent (Invitrogen), using standard techniques. Cells stably expressing the hSCN3A or hSCN9A constructs were identified by their resistance to G-418 (400 μg/ml). Clones were screened for expression using the whole-cell voltage-clamp technique. HEK cells stably transfected with hSCN3A or hSCN9A were maintained in DMEM medium supplemented with 10% heat-inactivated fetal bovine serum and 400 μg/ml G418 sulfate in an incubator at 37° C. with a humidified atmosphere of 10% CO2. For HTS, cells were harvested from flasks by trypsinization and replated in an appropriate multi-well plate (typically 96 or 384 wells/plate) such that confluence would be achieved within 24 hours of plating. For electrophysiological studies, cells were removed from the culture flask by brief trypsinization and replated at low density onto glass cover slips. Cells were typically used for electrophysiological experiments within 24 to 72 h after plating. Cover slips containing HEK cells expressing hSCN3A or hSCN9A were placed in a bath on the stage of an inverted microscope and perfused (approximately 1 ml/min) with extracellular solution of the following composition: 138 mM NaCl, 2 mM CaCl2, 5.4 mM KCl, 1 mM MgCl2, 10 mM glucose, and 10 mM HEPES, pH 7.4, with NaOH. […] All recordings were made at room temperature (22-24° C.) using AXOPATCH 200B amplifiers and PCLAMP software (Axon Instruments, Burlingame, Calif.) or PatchXpress 7000 hardware and associated software (Axon Instruments, Burlingame, Calif.). hSCN3A or hSCN9A currents in HEK cells were measured using the whole-cell configuration of the patch-clamp technique (Hamill et al., 1981). […] As a result, voltage errors were negligible and no correction was applied. Current records were acquired at 20 to 50 KHz and filtered at 5 to 10 KHz. HEK cells stably transfected with hSCN3A or hSCN9A were viewed under Hoffman contrast optics and placed in front of an array of flow pipes emitting either control or compound-containing extracellular solutions. All compounds were dissolved in dimethyl sulfoxide to make 10 mM stock solutions, which were then diluted into extracellular solution to attain the final concentrations desired. […] The voltage-dependence of inactivation was determined by applying a series of depolarizing prepulses (8 sec long in 10 mV increments) from a negative holding potential. The voltage was then immediately stepped to 0 mV to assess the magnitude of the sodium current. Currents elicited at 0 mV were plotted as a function of prepulse potential to allow estimation of the voltage midpoint of inactivation (V1/2). Cells were then voltage clamped at the empirically determined V1/2. Compounds were tested for their ability to inhibit hSCN3A or hSCN9A sodium channels by activating the channel with a 20 msec voltage step to 0 mV following an 8 second conditioning prepulse to the empirically determined V1-2 (Table B). Compound effect (% inhibition) was determined by difference in current amplitude before and after application of test compounds. […] In some cases electrophysiological assays were conducted with PatchXpress 7000 hardware and associated software (Molecular Devices Corp) (Table B). All assay buffers and solutions were identical to those used in conventional whole-cell voltage clamp experiments described above. hSCN3A or hSCN9A containing cells were grown as above to 50%-80% confluency and harvested by trypsinization. Trypsinized cells were washed and resuspended in extracellular buffer at a concentration of 1×10^6 cells/ml. The onboard liquid handling facility of the PatchXpress was used for dispensing cells and application of test compounds. Determination of the voltage midpoint of inactivation was as described for conventional whole-cell recordings. Cells were then voltage-clamped to the empirically determined V1/2 and current was activated by a 20 msec voltage step to 0 mV.

[3] = Table V, estimated IC-50 from single point electrophysiology, cells clamped at V1/2
[4] = estimated IC-50, HEK cells expressing hSCN3A, class symbols or bounds
[5] = estimated IC-50, HEK cells expressing hSCN9A, class symbols or bounds

T2 sequence (Q9NY46 whole entry): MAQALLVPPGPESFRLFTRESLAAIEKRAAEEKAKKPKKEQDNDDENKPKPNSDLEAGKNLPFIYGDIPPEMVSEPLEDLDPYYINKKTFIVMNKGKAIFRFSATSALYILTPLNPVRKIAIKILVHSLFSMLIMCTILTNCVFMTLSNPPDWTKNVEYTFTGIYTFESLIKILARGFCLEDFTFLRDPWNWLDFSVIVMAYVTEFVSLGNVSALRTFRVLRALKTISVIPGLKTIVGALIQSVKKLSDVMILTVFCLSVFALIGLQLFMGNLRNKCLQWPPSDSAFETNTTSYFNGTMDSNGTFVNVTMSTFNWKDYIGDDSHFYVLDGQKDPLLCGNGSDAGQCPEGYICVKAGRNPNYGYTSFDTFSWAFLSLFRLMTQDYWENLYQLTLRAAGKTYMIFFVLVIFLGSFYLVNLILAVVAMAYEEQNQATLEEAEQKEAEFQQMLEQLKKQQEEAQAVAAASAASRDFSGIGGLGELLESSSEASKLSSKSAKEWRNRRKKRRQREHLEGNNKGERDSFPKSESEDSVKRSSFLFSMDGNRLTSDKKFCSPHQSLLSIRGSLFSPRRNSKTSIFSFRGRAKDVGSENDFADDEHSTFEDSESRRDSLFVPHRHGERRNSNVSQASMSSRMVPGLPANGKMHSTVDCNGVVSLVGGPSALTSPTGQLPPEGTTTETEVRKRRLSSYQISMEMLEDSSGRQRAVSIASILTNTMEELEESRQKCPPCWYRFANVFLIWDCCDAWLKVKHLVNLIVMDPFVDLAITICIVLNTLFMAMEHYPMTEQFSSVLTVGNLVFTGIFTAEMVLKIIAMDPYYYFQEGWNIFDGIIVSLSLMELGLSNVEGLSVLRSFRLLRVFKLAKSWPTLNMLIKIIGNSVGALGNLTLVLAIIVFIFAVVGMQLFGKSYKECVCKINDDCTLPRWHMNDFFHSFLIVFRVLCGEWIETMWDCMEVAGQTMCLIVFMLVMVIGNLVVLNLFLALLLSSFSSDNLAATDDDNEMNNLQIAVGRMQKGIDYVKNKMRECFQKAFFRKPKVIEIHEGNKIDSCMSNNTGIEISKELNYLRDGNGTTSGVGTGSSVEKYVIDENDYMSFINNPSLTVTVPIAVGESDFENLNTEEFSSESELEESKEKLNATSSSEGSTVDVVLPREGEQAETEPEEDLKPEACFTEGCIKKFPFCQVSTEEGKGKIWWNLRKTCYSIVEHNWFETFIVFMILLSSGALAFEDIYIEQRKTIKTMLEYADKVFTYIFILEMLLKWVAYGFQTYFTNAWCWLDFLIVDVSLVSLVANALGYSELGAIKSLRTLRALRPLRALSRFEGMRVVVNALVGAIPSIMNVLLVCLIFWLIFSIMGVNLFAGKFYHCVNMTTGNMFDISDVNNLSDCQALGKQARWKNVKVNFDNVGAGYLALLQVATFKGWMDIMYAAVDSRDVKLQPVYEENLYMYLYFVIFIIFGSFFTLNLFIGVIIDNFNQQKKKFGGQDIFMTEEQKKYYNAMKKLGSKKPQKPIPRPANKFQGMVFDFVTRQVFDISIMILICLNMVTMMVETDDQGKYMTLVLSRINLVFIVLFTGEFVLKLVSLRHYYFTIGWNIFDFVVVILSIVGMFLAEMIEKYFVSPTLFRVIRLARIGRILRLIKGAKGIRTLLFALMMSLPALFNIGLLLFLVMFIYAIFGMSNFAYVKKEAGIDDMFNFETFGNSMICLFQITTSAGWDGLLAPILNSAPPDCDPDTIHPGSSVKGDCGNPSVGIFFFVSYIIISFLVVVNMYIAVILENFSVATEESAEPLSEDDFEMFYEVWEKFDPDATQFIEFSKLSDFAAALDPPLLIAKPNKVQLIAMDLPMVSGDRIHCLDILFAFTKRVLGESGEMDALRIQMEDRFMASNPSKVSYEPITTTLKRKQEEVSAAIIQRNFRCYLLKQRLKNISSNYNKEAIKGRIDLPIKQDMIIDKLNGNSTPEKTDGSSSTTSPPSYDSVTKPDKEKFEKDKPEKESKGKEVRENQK
T1 sequence (Q15858 whole entry): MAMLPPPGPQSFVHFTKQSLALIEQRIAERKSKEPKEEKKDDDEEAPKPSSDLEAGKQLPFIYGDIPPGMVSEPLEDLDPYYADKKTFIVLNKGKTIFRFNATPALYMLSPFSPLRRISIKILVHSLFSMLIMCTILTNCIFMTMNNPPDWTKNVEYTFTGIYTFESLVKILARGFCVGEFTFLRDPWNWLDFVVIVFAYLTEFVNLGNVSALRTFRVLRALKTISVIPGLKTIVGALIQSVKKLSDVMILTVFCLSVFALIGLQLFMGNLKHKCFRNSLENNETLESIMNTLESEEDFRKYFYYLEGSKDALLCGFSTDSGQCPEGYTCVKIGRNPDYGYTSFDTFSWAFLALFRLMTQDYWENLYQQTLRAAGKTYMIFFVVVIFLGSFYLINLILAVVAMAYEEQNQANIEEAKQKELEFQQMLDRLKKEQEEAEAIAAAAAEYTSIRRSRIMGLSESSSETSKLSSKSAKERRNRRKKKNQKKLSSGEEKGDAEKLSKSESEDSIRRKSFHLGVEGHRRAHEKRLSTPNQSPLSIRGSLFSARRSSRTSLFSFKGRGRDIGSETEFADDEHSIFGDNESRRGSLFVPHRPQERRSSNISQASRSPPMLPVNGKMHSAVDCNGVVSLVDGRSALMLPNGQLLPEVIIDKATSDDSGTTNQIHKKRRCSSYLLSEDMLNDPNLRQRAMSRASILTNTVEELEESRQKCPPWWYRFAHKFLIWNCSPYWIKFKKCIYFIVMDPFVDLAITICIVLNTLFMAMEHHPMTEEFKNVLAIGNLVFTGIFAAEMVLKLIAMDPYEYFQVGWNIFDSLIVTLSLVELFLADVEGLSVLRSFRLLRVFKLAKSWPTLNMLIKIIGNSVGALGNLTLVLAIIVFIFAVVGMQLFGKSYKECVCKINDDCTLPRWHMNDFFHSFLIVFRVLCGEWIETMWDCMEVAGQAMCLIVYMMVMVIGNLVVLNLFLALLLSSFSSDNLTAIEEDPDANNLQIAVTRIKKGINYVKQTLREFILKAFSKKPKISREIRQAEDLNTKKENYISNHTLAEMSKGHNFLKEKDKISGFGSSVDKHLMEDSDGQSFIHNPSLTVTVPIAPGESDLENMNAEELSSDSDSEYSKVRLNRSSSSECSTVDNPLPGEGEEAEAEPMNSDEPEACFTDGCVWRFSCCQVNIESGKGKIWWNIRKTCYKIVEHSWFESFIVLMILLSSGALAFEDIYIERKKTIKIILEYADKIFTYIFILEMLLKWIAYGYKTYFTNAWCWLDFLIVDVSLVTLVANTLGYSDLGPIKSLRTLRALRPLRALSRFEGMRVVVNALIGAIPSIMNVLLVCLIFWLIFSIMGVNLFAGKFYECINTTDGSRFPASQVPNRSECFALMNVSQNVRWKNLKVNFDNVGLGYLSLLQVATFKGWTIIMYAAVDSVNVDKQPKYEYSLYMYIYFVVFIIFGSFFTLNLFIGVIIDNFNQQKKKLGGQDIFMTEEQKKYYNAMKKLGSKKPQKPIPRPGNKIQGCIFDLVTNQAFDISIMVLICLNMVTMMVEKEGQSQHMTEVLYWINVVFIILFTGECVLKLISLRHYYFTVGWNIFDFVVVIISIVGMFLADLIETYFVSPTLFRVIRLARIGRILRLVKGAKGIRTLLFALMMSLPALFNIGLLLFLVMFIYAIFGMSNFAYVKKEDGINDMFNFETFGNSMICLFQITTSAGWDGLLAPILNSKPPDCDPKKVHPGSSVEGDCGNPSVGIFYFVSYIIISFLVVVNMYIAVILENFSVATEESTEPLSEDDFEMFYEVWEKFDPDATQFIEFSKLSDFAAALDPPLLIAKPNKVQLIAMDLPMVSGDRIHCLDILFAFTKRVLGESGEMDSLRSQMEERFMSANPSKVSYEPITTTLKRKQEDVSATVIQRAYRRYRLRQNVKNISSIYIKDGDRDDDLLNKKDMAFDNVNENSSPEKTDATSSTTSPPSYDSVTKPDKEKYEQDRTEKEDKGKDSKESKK

| SMILES | pIC50 [1, 3] | pIC50 [2, 3] | pIC50 [2, 4] | pIC50 [1, 5] |
| --- | --- | --- | --- | --- |
| O=S(=O)(Nc1nccs1)c1ccc(Nc2nc(Cc3ccc(Cl)cc3)cs2)cc1F [Compound 1, 4-[4-(4-Chloro-benzyl)-thiazol-2-ylamino]-2-fluoro-N-thiazol-2-yl-benzenesulfonamide] | > 5.70 | > 5.70 |  |  |
| O=S(=O)(Nc1nccs1)c1ccc(Nc2nc(C(c3ccccc3)c3ccccc3)cs2)cc1 [Compound 2, 4-(4-Benzhydrylthiazol-2-ylamino)-N-(thiazol-2-yl)benzenesulfonamide] | 5.00 to 5.70 | > 5.70 |  |  |
| COc1ccc(Cc2csc(Nc3ccc(S(=O)(=O)Nc4nccs4)c(F)c3)n2)cc1 [Compound 3, 2-Fluoro-4-[4-(4-methoxy-benzyl)-thiazol-2-ylamino]-N-thiazol-2-yl-benzenesulfonamide] | < 5.00 | > 5.70 |  |  |
| CS(=O)(=O)c1ccc(Cc2csc(Nc3ccc(S(=O)(=O)Nc4nccs4)c(F)c3)n2)cc1 [Compound 4, 2-Fluoro-4-[4-(4-methanesulfonyl-benzyl)-thiazol-2-ylamino]-N-thiazol-2-yl-benzenesulfonamide] | 5.00 to 5.70 | > 5.70 |  |  |
| N#Cc1ccc(Cc2csc(Nc3ccc(S(=O)(=O)Nc4nccs4)c(F)c3)n2)cc1 [Compound 5, 4-[4-(4-Cyano-benzyl)-thiazol-2-ylamino]-2-fluoro-N-thiazol-2-yl-benzenesulfonamide] | 5.00 to 5.70 | > 5.70 |  |  |
| CN(c1ccc(S(=O)(=O)Nc2nccs2)c(F)c1)c1nc(Cc2ccc(Cl)cc2)cs1 [Compound 6, 4-[4-(4-Chloro-benzyl)-thiazol-2-yl]-methyl-amino-2-fluoro-N-thiazol-2-yl-benzenesulfonamide] | 5.00 to 5.70 | 5.00 to 5.70 |  |  |
| CC(C)(C)c1csc(Nc2ccc(S(=O)(=O)Nc3nccs3)c(F)c2)n1 [Compound 7, 4-(4-Tert-butyl-thiazol-2-ylamino)-2-fluoro-N-thiazol-2-yl-benzenesulfonamide] | 5.00 to 5.70 | > 5.70 |  |  |
| Cc1nc(Nc2ccc(S(=O)(=O)Nc3nccs3)cc2)sc1C(C)(C)C [Compound 8, 4-(5-Tert-butyl-4-methylthiazol-2-ylamino)-N-(thiazol-2-yl)benzenesulfonamide] | > 5.70 | > 5.70 |  |  |
| CC(=O)c1sc(Nc2ccc(S(=O)(=O)Nc3nccs3)c(F)c2)nc1C [Compound 9, 4-(5-Acetyl-4-methyl-thiazol-2-ylamino)-2-fluoro-N-thiazol-2-yl-benzenesulfonamide] | 5.00 to 5.70 | 5.00 to 5.70 |  |  |
| CC(C)(C)c1csc(Nc2ccc(S(=O)(=O)Nc3nccs3)c(Cl)c2)n1 [Compound 10, 4-(4-Tert-butyl-thiazol-2-ylamino)-2-chloro-N-thiazol-2-yl-benzenesulfonamide] | 5.00 to 5.70 | > 5.70 |  |  |
| CC(C)(C)c1csc(Nc2ccc(S(=O)(=O)Nc3nccs3)c(OC(F)(F)F)c2)n1 [Compound 11, 4-(4-tert-Butyl-thiazol-2-ylamino)-N-thiazol-2-yl-2-trifluoromethoxy-benzenesulfonamide] | 5.00 to 5.70 | 5.00 to 5.70 |  |  |
| CC(C)(C)c1csc(Nc2ccc(S(=O)(=O)Nc3nccs3)c3ccccc23)n1 [Compound 12, 4-(4-tert-Butyl-thiazol-2-ylamino)-naphthalene-1-sulfonic acid thiazol-2-ylamide] | 5.00 to 5.70 | > 5.70 |  |  |
| Cc1nc(Nc2ccc(S(=O)(=O)Nc3nccs3)c(F)c2)sc1C(C)(C)C [Compound 13, 4-(5-tert-butyl-4-methylthiazol-2-ylamino)-2-fluoro-N-(thiazol-2-yl)benzenesulfonamide] | > 5.70 | > 5.70 |  |  |
| CC(C)(C)c1csc(Nc2ccc(S(=O)(=O)Nc3nccs3)cc2)n1 [Compound 14, 4-(4-Tert-butyl-thiazol-2-ylamino)-N-thiazol-2-yl-benzenesulfonamide] | 5.00 to 5.70 | > 5.70 |  |  |
| CC(C)(C)n1nc(Cc2ccc(Cl)cc2)cc1Nc1ccc(S(=O)(=O)Nc2nccs2)cc1 [Compound 15, 4-(1-tert-butyl-3-(4-chlorobenzyl)-1H-pyrazol-5-ylamino)-N-(thiazol-2-yl)benzenesulfonamide] | > 5.70 | > 5.70 |  |  |
| O=S(=O)(Nc1nccs1)c1ccc(Nc2cc(Cc3ccc(Cl)cc3)n[nH]2)cc1 [Compound 16, 4-(3-(4-Chlorobenzyl)-1H-pyrazol-5-ylamino)-N-(thiazol-2-yl)benzenesulfonamide] | > 5.70 | > 5.70 |  |  |
| Cn1nc(C(C)(C)C)cc1Nc1ccc(S(=O)(=O)Nc2nccs2)cc1 [Compound 17, 4-(3-Tert-butyl-1-methyl-1H-pyrazol-5-ylamino)-N-(thiazol-2-yl)benzenesulfonamide] | 5.00 to 5.70 | > 5.70 |  |  |
| CC(C)(C)c1cc(Nc2ccc(S(=O)(=O)Nc3nccs3)cc2)no1 [Compound 18] | < 5.00 | > 5.70 |  |  |
| CC(C)(C)n1nc(Nc2ccc(S(=O)(=O)Nc3nccs3)cc2)nc1N [Compound 19, 4-(5-Amino-1-tert-butyl-1H-1,2,4-triazol-3-ylamino)-N-(thiazol-2-yl)benzenesulfonamide] | < 5.00 | > 5.70 |  |  |
| Cc1cc(Nc2ccc(S(=O)(=O)Nc3nccs3)cc2)n(-c2ccccc2)n1 [Compound 20, 4-(3-methyl-1-phenyl-1H-pyrazol-5-ylamino)-N-(thiazol-2-yl)benzenesulfonamide] | 5.00 to 5.70 | > 5.70 |  |  |
| O=S(=O)(Nc1nccs1)c1ccc(Nc2nc(CCCCl)cs2)cc1 [Compound 59, 4-(4-(3-chloropropyl)thiazol-2-ylamino)-N-(thiazol-2-yl)benzenesulfonamide] |  |  | > 5.70 |  |
| COc1ccnc(Nc2ccc(S(=O)(=O)Nc3cc(C)on3)cc2)n1 [Compound 86, 4-(4-methoxypyrimidin-2-ylamino)-N-(5-methylisoxazol-3-yl)benzenesulfonamide] |  |  | < 6.00 |  |
| Cc1cc(NS(=O)(=O)c2ccc(Nc3nccc(OCc4ccc(C(F)(F)F)cc4)n3)cc2)no1 [Compound 87, N-(5-methylisoxazol-3-yl)-4-(4-(4-(trifluoromethyl)benzyloxy)pyrimidin-2-ylamino)benzenesulfonamide] |  |  | < 6.00 |  |
| Cc1cc(NS(=O)(=O)c2ccc(Nc3ccnc(OCc4ccc(C(F)(F)F)cc4)n3)cc2)no1 [Compound 88, N-(5-methylisoxazol-3-yl)-4-(2-(4-(trifluoromethyl)benzyloxy)pyrimidin-4-ylamino)benzenesulfonamide] |  |  | 5.00 to 5.70 |  |
| O=S(=O)(Nc1nccs1)c1ccc2nn(Cc3ccc(OC(F)(F)F)cc3)cc2c1 [Compound 275, N-(thiazol-2-yl)-2-(4-(trifluoromethoxy)benzyl)-2H-indazole-5-sulfonamide] |  |  |  | 5.00 to 5.70 |
| O=S(=O)(Nc1nccs1)c1ccc2c(cnn2CCCCc2ccccc2)c1 [Compound 278, 1-(4-phenylbutyl)-N-(thiazol-2-yl)-1H-indazole-5-sulfonamide] |  |  |  | > 5.70 |
| O=S(=O)(Nc1nccs1)c1ccc2nn(CCCCc3ccccc3)cc2c1 [Compound 279, 2-(4-phenylbutyl)-N-(thiazol-2-yl)-2H-indazole-5-sulfonamide] |  |  |  | 5.00 to 5.70 |
